ChEMBL document CHEMBL4354807, “Natural Product Albiziabioside A Conjugated with Pyruvate Dehydrogenase Kinase Inhibitor Dichloroacetate To Induce Apoptosis-Ferroptosis-M2-TAMs Polarization for Combined Cancer Therapy” (J Med Chem, 2019)
pIC50: −log10 of the molar value. Activity calls are given as the source filed them. The calls are words filed in the database; no cut-off is given here.

Experiments:
4T1 [1] = assay: Reversal of immunosuppression against mouse 4T1 cells implanted in BALB/c mouse assessed as reduction in tumor volume at 2 mg/kg administered intratumorally every 2 days for 2 weeks measured after 14 days; type: functional
[2] = Stability of compound in PBS at pH 7.4 and 37 degree C measured after 2 hrs by HPLC analysis; type: physicochemical; details: buffer, pH 7.4, 2 h
MCF7 [3] = assay: Induction of metabolic reversal from aerobic glycolysis to oxidative phosphorylation in human MCF7 cells assessed as […] at 2 uM pretreated for 3 hrs followed by oligomycin A addition after 25 mins followed by subsequent addition of FCCP after 50 mins followed by antimycin/rotenone addition after 80 mins by seahorse XF24 extracellular flux analyzer assay; type: functional, cell-based
A-375 = assay: Anticancer activity against human A375 cells expressing PDK assessed as reduction in cell viability after 72 hrs by MTT assay; type: functional, cell-based; details: A-375, 72 h
MCF7 [4] = assay: Inhibition of glycolysis in human MCF7 cells assessed as reduction in intracellular lactate level at 2 uM after 6 hrs by microplate reader assay; type: functional, cell-based
MCF7 [5] = assay: Inhibition of glycolysis in human MCF7 cells assessed as reduction in extracellular lactate level at 2 uM after 6 hrs by microplate reader assay; type: functional, cell-based
[6] = Drug metabolism assessed as carboxylesterase (unknown origin)-mediated compound cleavage at aniline-amide bond after 2 hrs by HPLC analysis; type: ADME; details: human
4T1 [7] = assay: Induction of M2-TAM polarization in mouse 4T1 cells assessed as decrease in MRC1 protein level at 2 uM after 48 hrs by Western blot analysis relative to control; type: functional
[8] = Selectivity index, ratio IC50 for cytotoxicity against human LO2 cells assessed as reduction in cell viability after 72 hrs by MTT assay to IC50 for anticancer activity against mouse 4T1 cells assessed as reduction in cell viability after 72 hrs by MTT assay
[9] = Selectivity index, ratio IC50 for cytotoxicity against human HBMEC cells assessed as reduction in cell viability after 72 hrs by MTT assay to IC50 for anticancer activity against human MCF7 cells assessed as reduction in cell viability after 72 hrs by MTT assay
[10] = Toxicity in BALB/c nude mouse xenografted with human MCF7 cells assessed as effect on lung at 2 mg/kg, iv administered every 2 days for 2 weeks measured after 14 days by hematoxylin and eosin staining based histopathological analysis; type: organism-based; details: in vivo, 336 h

## CC1(C)CC[C@]2(C(=O)O)CC[C@]3(C)C(=CC[C@@H]4[C@@]5(C)CC[C@H](O[C@@H]6O[C@H](CO[C@@H]7OC[C@H](O)[C@H](O)[C@H]7O)[C@@H](O)[C@H](O)[C@H]6NC(=O)C(Cl)Cl)C(C)(C)[C@@H]5CC[C@]43C)[C@@H]2C1
4T1 [1]
  Activity: <100 mm3
[2]
  Stability: Stable
MCF7 [3]
  Activity: inactive
A-375
  pIC50: 5.42
MCF7 [4]
  inhibition: Active
MCF7 [5]
  inhibition: Active
[6]
  Drug metabolism: Metabolite_Detected
4T1 [7]
  fold change (FC): 3.4
[8]
  Ratio IC50: 40.56
[9]
  Ratio IC50: 88.83
[10]
  Activity: Non-Toxic
